Reference: ChEMBL document CHEMBL4715808, “Discovery of (1S,2R,3S,4S,5R,6R)-2-Amino-3-[(3,4-difluorophenyl)sulfanylmethyl]-4-hydroxy-bicyclo[3.1.0]hexane-2,6-dicarboxylic Acid Hydrochloride (LY3020371·HCl): A Potent, Metabotropic Glutamate 2/3 Receptor Antagonist with Antidepressant-Like Activity” (J Med Chem, 2016)

Tests used:
[1] = biological target: T1, Metabotropic glutamate receptor 2 (Homo sapiens, UniProt Q14416); test: […] at mGlu2 (unknown origin)
[2] = biological target: T2, Metabotropic glutamate receptor 3 (Homo sapiens, UniProt Q14832); test: Antagonist activity at human recombinant mGlu3 receptor stably expressed in golden hamster AV12 cells co-expressing rat EAAT1 assessed as reduction in DCG IV-induced inhibition of forskolin-stimulated cAMP accumulation preincubated for 20 mins followed by incubation with cAMP-d2 conjugate and anti-cAMP cryptate for 1 hr by HTRF assay; assay type: functional, cell-based
[3] = biological target: T1, Metabotropic glutamate receptor 2
Description: Displacement of [3H]-LY459477 from recombinant human mGlu2 receptor expressed in hamster AV12 cell membranes co-expressing rat EAAT1 incubated for 90 mins by top count scintillation method

[4] = biological target: T2, Metabotropic glutamate receptor 3; test: Displacement of [3H]-LY459477 from recombinant human mGlu3 receptor expressed in hamster AV12 cell membranes co-expressing rat EAAT1 incubated for 90 mins by top count scintillation method; set-up: species or system Cell membrane
[5] = biological target: T1, Metabotropic glutamate receptor 2; remark: listed apart in the source
Description: Antagonist activity at human recombinant mGlu2 receptor stably expressed in golden hamster AV12 cells co-expressing rat EAAT1 assessed as reduction in DCG IV-induced inhibition of forskolin-stimulated cAMP accumulation preincubated for 20 mins followed by incubation with cAMP-d2 conjugate and anti-cAMP cryptate for 1 hr by HTRF assay

T1 sequence (Q14416 whole entry): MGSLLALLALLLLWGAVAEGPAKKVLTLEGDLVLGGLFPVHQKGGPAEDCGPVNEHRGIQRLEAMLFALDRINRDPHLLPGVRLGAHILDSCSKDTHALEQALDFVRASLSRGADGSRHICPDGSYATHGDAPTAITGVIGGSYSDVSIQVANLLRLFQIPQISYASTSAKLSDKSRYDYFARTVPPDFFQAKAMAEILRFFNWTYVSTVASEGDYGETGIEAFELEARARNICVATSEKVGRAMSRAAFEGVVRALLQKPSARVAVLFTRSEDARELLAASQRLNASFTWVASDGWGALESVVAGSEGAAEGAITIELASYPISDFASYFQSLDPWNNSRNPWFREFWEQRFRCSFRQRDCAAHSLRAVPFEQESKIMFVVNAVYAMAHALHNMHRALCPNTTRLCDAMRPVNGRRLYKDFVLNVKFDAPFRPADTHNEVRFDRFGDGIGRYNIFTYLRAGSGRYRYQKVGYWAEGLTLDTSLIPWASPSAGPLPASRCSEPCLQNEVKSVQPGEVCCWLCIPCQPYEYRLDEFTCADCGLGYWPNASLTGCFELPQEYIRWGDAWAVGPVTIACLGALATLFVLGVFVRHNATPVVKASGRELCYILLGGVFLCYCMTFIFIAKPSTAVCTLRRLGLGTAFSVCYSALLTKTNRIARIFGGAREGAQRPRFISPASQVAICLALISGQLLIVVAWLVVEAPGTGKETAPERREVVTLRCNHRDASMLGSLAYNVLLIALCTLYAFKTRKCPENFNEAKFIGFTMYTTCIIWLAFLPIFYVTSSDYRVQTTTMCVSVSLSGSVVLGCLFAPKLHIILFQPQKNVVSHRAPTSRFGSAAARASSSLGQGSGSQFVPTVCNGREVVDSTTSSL
T2 sequence (Q14832 whole entry): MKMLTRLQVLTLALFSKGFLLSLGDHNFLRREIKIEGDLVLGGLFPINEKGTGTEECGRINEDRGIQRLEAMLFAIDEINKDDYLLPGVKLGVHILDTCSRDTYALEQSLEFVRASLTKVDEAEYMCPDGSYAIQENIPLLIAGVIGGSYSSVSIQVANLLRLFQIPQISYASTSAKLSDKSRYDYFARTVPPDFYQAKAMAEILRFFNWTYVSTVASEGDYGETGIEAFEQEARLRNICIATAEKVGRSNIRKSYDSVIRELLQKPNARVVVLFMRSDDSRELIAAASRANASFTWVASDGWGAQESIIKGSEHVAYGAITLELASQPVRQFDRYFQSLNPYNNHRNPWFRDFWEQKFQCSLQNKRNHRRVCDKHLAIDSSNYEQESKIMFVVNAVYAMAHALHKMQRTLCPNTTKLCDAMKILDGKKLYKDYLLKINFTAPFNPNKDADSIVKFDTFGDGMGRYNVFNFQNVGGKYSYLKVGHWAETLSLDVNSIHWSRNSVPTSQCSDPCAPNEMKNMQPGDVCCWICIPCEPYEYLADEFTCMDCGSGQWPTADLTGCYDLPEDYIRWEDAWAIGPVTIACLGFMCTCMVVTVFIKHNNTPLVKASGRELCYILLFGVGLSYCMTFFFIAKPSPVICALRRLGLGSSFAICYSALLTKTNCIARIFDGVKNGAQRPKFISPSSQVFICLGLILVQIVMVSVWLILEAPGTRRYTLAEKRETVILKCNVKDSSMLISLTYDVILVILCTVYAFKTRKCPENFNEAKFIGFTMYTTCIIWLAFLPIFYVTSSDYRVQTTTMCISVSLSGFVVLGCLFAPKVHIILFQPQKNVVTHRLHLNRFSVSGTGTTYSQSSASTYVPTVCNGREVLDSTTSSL

| Structure (SMILES) | IC50 [1] [nM] | IC50 [2] [nM] | Ki [3] [nM] | Ki [4] [nM] | IC50 [5] [nM] |
| --- | --- | --- | --- | --- | --- |
| N[C@@]1(C(=O)O)[C@H](Cc2ccc(F)c(Cl)c2)C[C@H]2[C@H](C(=O)O)[C@H]21 | – | 110 | – | – | – |
| CC(=O)N[C@H]1[C@H]2[C@H](C(=O)O)[C@H]2[C@](N)(C(=O)O)[C@@H]1CSc1ccc(F)c(C)c1 | – | 12.4 | 9.2 | 7.7 | 26.2 |

More lines, now with the values ahead:

| IC50 [1] [nM] | IC50 [2] [nM] | Ki [3] [nM] | Ki [4] [nM] | IC50 [5] [nM] | Structure (SMILES) |
| --- | --- | --- | --- | --- | --- |
| 8.6 | – | – | – | – | N[C@@]1(C(=O)O)C[C@@H](O)[C@H]2[C@H](C(=O)O)[C@H]21 |
| 22.6 | – | – | – | – | N[C@@]1(C(=O)O)C[C@H](O)[C@H]2[C@H](C(=O)O)[C@H]21 |
| – | 56.5 | 8.4 | 9.4 | 9.8 | N[C@]1(C(=O)O)[C@@H]2[C@@H](C(=O)O)[C@@H]2[C@H](O)[C@H]1CSc1ccc(Cl)c(Cl)c1 |
